Measured values as given in ChEMBL document CHEMBL1201862, “PubChem BioAssay data set” (2004).
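Test compounds were applied to cells in 96-well plates for 48 hours at 5 doses. GI50 is the concentration that inhibits growth by half.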 Active and inactive are the calls of the source. Cut-off read from the data, not from the text of the source: active = GI50 up to about 1.1 µM and inactive = higher.

Tests used:
Assay in all cases: DTP human tumour cell line panel, 48 h
[1] = system: 786-0
[2] = system: A498
[3] = system: A549
[4] = system: ACHN
[5] = system: BT-549
[6] = system: CAKI-1
[7] = system: CCRF-CEM
[8] = system: COLO 205
[9] = system: DU-145
[10] = system: EKVX
[11] = system: HCC 2998
[12] = system: HCT-116
[13] = system: HCT-15
[14] = system: HL-60
[15] = system: HOP-62
[16] = system: HOP-92
[17] = system: HT-29
[18] = system: Hs-578T
[19] = system: IGROV-1
[20] = system: K562
[21] = system: KM12
[22] = system: LOX IMVI
[23] = system: M14
[24] = system: MCF7
[25] = system: MDA-MB-231
[26] = system: MDA-MB-435
[27] = system: MDA-N
[28] = system: MOLT-4
[29] = system: Malme-3M
[30] = system: NCI-H226
[31] = system: NCI-H23
[32] = system: NCI-H460
[33] = system: NCI-H522
[34] = system: NCI/ADR-RES
[35] = system: OVCAR-3
[36] = system: OVCAR-4
[37] = system: OVCAR-5
[38] = system: OVCAR-8
[39] = system: PC-3
[40] = system: RPMI-8226
[41] = system: RXF 393
[42] = system: SF-268
[43] = system: SF-295
[44] = system: SF-539
[45] = system: SK-MEL-28
[46] = system: SK-MEL-2
[47] = system: SK-MEL-5
[48] = system: SK-OV-3
[49] = system: SN12C
[50] = system: SNB-19
[51] = system: SR
[52] = system: SW-620
[53] = system: T47D
[54] = system: TK-10
[55] = system: U-251
[56] = system: UACC-257
[57] = system: UACC-62
[58] = system: UO-31
[59] = system: SNB-75

`Cc1ccc2c(c1C)-c1c(ccc(C)c1C)C(=O)C2=O` was tested, and the GI50 [1] was 0.358 µM (active), the GI50 [2] was 1.87 µM (inactive) and the GI50 [3] was 0.887 µM (active). For the same compound, the GI50 [4] was 0.625 µM (active), the GI50 [5] was 0.335 µM (active) and the GI50 [6] was 0.662 µM (active). For the same compound, the GI50 [7] was 0.238 µM (active), the GI50 [8] was 2.02 µM (inactive) and the GI50 [9] was 1.14 µM (inactive). The GI50 [10] was 2.13 µM (inactive), the GI50 [11] was 3.7 µM (inactive) and the GI50 [12] was 0.361 µM (active). The GI50 [13] was 0.292 µM, the GI50 [14] was 0.219 µM (active) and the GI50 [15] was 1.39 µM (inactive). For the same compound, the GI50 [16] was 0.374 µM (active), the GI50 [17] was 2.36 µM (inactive) and the GI50 [18] was 0.342 µM (active). For the same compound, the GI50 [19] was 0.357 µM (active), the GI50 [20] was 0.266 µM (active) and the GI50 [21] was 0.165 µM (active). The GI50 [22] was 0.304 µM (active), the GI50 [23] was 0.679 µM (active) and the GI50 [24] was 0.21 µM (active). The GI50 [25] was 1.62 µM (inactive), the GI50 [26] was 0.21 µM (active) and the GI50 [27] was 0.173 µM (active). For the same compound, the GI50 [28] was 0.2 µM (active), the GI50 [29] was 0.598 µM (active) and the GI50 [30] was 1.66 µM (inactive). For the same compound, the GI50 [31] was 0.53 µM (active), the GI50 [32] was 0.966 µM (active) and the GI50 [33] was 0.148 µM (active). The GI50 [34] was 0.151 µM (active), the GI50 [35] was 0.296 µM (active) and the GI50 [36] was 0.0459 µM (active). For the same compound, the GI50 [37] was 1.55 µM (inactive), the GI50 [38] was 0.253 µM (active) and the GI50 [39] was 0.265 µM (active). For the same compound, the GI50 [40] was 0.193 µM (active), the GI50 [41] was 0.337 µM (active) and the GI50 [42] was 0.385 µM (active). For the same compound, the GI50 [43] was 0.59 µM (active), the GI50 [44] was 0.21 µM (active) and the GI50 [45] was 0.92 µM (active). For the same compound, the GI50 [46] was 1.19 µM (inactive), the GI50 [47] was 0.367 µM (active) and the GI50 [48] was 2.15 µM (inactive). For the same compound, the GI50 [49] was 0.817 µM (active), the GI50 [50] was 0.881 µM (active) and the GI50 [51] was 0.107 µM (active). The GI50 [52] was 0.378 µM (active), the GI50 [53] was 1.81 µM (inactive) and the GI50 [54] was 1.18 µM (inactive). For the same compound, the GI50 [55] was 0.432 µM (active), the GI50 [56] was 1.37 µM (inactive) and the GI50 [57] was 0.356 µM (active). For the same compound, the GI50 [58] was 0.625 µM (active).
`CC(C)N(C(=O)c1ccc(NCc2cc(O)ccc2O)cc1)C(C)C` was tested, and the GI50 [1] was 13 µM (inactive), the GI50 [2] was 18 µM (inactive) and the GI50 [3] was 26.2 µM (inactive). The GI50 [4] was 13.8 µM (inactive), the GI50 [5] was 11.9 µM (inactive) and the GI50 [6] was 14.2 µM (inactive). The GI50 [7] was 3.08 µM (inactive), the GI50 [8] was 30.4 µM (inactive) and the GI50 [9] was 16.4 µM (inactive). The GI50 [10] was 14.7 µM (inactive), the GI50 [12] was 15.5 µM (inactive) and the GI50 [13] was 16.8 µM. For the same compound, the GI50 [14] was 2.26 µM (inactive), the GI50 [15] was 25.5 µM (inactive) and the GI50 [16] was 11.9 µM (inactive). For the same compound, the GI50 [17] was 18 µM (inactive), the GI50 [18] was 26.2 µM (inactive) and the GI50 [19] was 17.7 µM (inactive). The GI50 [20] was 20.4 µM (inactive), the GI50 [22] was 14.7 µM (inactive) and the GI50 [23] was 17.2 µM (inactive). The GI50 [24] was 23.9 µM (inactive), the GI50 [25] was 14.3 µM (inactive) and the GI50 [26] was 17.1 µM (inactive). For the same compound, the GI50 [27] was 17.7 µM (inactive), the GI50 [28] was 15.2 µM (inactive) and the GI50 [29] was 13.9 µM (inactive). The GI50 [30] was 17.2 µM (inactive), the GI50 [31] was 17.9 µM (inactive) and the GI50 [32] was 18.2 µM (inactive). For the same compound, the GI50 [33] was 1.59 µM (inactive), the GI50 [34] was 14.8 µM (inactive) and the GI50 [35] was 11.6 µM (inactive). The GI50 [36] was 15.1 µM (inactive), the GI50 [37] was 21.5 µM (inactive) and the GI50 [38] was 14.4 µM (inactive). For the same compound, the GI50 [39] was 18.8 µM (inactive), the GI50 [41] was 13.1 µM (inactive) and the GI50 [42] was 17.6 µM (inactive). The GI50 [43] was 21.1 µM (inactive), the GI50 [44] was 12.9 µM (inactive) and the GI50 [45] was 16.9 µM (inactive). For the same compound, the GI50 [46] was 22.3 µM (inactive), the GI50 [47] was 14.6 µM (inactive) and the GI50 [48] was 35.3 µM (inactive). For the same compound, the GI50 [49] was 18.2 µM (inactive), the GI50 [50] was 19.2 µM (inactive) and the GI50 [59] was 24.8 µM (inactive). For the same compound, the GI50 [51] was > 100 µM (inactive), the GI50 [52] was 21.5 µM (inactive) and the GI50 [53] was 11.8 µM (inactive). The GI50 [54] was 15.6 µM (inactive), the GI50 [55] was 15.8 µM (inactive) and the GI50 [56] was 17.4 µM (inactive). For the same compound, the GI50 [57] was 14.2 µM (inactive) and the GI50 [58] was 9.44 µM (inactive).
For `O=[N+]([O-])c1ccc2c(c1)c1nn2CCCCOc2nn(c3ccc([N+](=O)[O-])cc23)CCCCO1`, the GI50 [1] was > 100 µM (inactive), the GI50 [2] was > 100 µM (inactive) and the GI50 [4] was > 100 µM (inactive). The GI50 [5] was > 100 µM (inactive), the GI50 [6] was > 100 µM (inactive) and the GI50 [8] was > 100 µM (inactive). For the same compound, the GI50 [9] was > 100 µM (inactive), the GI50 [10] was > 100 µM (inactive) and the GI50 [11] was > 100 µM (inactive). For the same compound, the GI50 [12] was > 100 µM (inactive), the GI50 [13] was over 100 µM and the GI50 [14] was > 100 µM (inactive). The GI50 [15] was 0.743 µM (active), the GI50 [16] was > 100 µM (inactive) and the GI50 [18] was > 100 µM (inactive). For the same compound, the GI50 [19] was > 100 µM (inactive), the GI50 [20] was > 100 µM (inactive) and the GI50 [22] was > 100 µM (inactive). For the same compound, the GI50 [23] was > 100 µM (inactive), the GI50 [24] was > 100 µM (inactive) and the GI50 [25] was > 100 µM (inactive). For the same compound, the GI50 [26] was > 100 µM (inactive), the GI50 [27] was > 100 µM (inactive) and the GI50 [28] was > 100 µM (inactive). The GI50 [29] was > 100 µM (inactive), the GI50 [30] was > 100 µM (inactive) and the GI50 [31] was > 100 µM (inactive). For the same compound, the GI50 [32] was > 100 µM (inactive), the GI50 [33] was > 100 µM (inactive) and the GI50 [34] was > 100 µM (inactive). For the same compound, the GI50 [35] was > 100 µM (inactive), the GI50 [36] was > 100 µM (inactive) and the GI50 [37] was > 100 µM (inactive). The GI50 [38] was > 100 µM (inactive), the GI50 [39] was > 100 µM (inactive) and the GI50 [40] was > 100 µM (inactive). The GI50 [41] was > 100 µM (inactive), the GI50 [42] was > 100 µM (inactive) and the GI50 [43] was > 100 µM (inactive). The GI50 [44] was > 100 µM (inactive), the GI50 [45] was > 100 µM (inactive) and the GI50 [46] was > 100 µM (inactive). The GI50 [48] was > 100 µM (inactive), the GI50 [49] was > 100 µM (inactive) and the GI50 [50] was > 100 µM (inactive). The GI50 [59] was > 100 µM (inactive), the GI50 [51] was > 100 µM (inactive) and the GI50 [53] was > 100 µM (inactive). For the same compound, the GI50 [55] was > 100 µM (inactive), the GI50 [56] was > 100 µM (inactive) and the GI50 [58] was > 100 µM (inactive).
